This experiment concerns P. falciparum 3D7 growth, pLDH absorbance. The experiment can be described thus: blood-stage malaria parasite growth potency – strain 3D7, dose response (AID 2305).
The compound `CCC(CC(C)C(=O)O)=C(c1ccccc1)c1ccccc1` (stereo not drawn) showed an IC50 of 220 nM.

Consider `CCOc1ccc(-c2nonc2NC(=O)c2ccc(OC(C)C)cc2)cc1OCC`, for which the IC50 stood at 600 nM.

Regarding `CN(C)C(=O)C(CC(=O)NCc1ccccc1Cl)N(C)C` (stereo not drawn) (tested in a mixture with another compound), the IC50 is 900 nM.

Regarding `CC(=O)Nc1ccc(OCCN(Cc2ccccc2C(F)(F)F)c2ccc(C#N)c(C(F)(F)F)c2)cc1`, the IC50 turned out to be 440 nM.

In turn, `CNC(=O)c1c(NC(=O)c2cccs2)sc2c1CCCC2` registered an IC50 of 820 nM.

On to `Oc1c(CNC2CCCCC2)cc(Cl)c2ccccc12`, for which the IC50 came out at 840 nM.

For `O=C(NCCCCN1CCC(c2c[nH]c3ccc(-c4ccccc4)cc23)CC1)c1ccc(-c2ccccc2)cc1`, the IC50 stood at 990 nM.

On to `CCOc1c(CNCCCNc2nc3ccccc3[nH]2)cc(Br)cc1OC`, for which the IC50 worked out at 560 nM.

`NC(=NCc1ccc(Cl)c(Cl)c1)NC(=NCCCCCCN=C(NC(N)=NCc1ccc(Cl)c(Cl)c1)N1CCCCC1)N1CCCCC1` yielded an IC50 of 570 nM.

`Cc1[nH]c(C)c(-c2ccc(OCc3ccc(F)cc3)cc2)c(=O)c1Cl` registered an IC50 of 570 nM. This lies in the sub-micromolar range.

Regarding `CN1CCC(NCc2cccc(-c3ccc(S(=O)(=O)NCc4ccccc4)cc3)c2)CC1`, the 50% inhibitory concentration (IC50) turned out to be 690 nM. The IC50 values of the last two compounds are within 1.5-fold of each other.

`CCN(c1ccc(O)c(CN2CCCCC2)c1)c1ccc([N+](=O)[O-])cn1` yielded an IC50 of 890 nM.

Consider `CS(=O)(=O)CCNCc1cccc(-c2ccc3c(Nc4cc(O)c(Cl)cc4F)ccnc3c2)c1`, for which the IC50 came to 250 nM. Against the preceding compound, the IC50 is about 3.6-fold lower.

On to `O=C(Nc1ccc(-c2nc3ccccc3[nH]2)cc1)c1cccc(S(=O)(=O)N2CCCC2)c1`, for which the IC50 is 740 nM. Against the preceding compound, the IC50 is about 3-fold higher.

Compound `Cn1cccc1C(=O)Nc1cccc(-c2nn3ccccc3c2-c2ccnc(Nc3ccc4c(c3)OCCO4)n2)c1` registered an IC50 of 1350 nM.

`CC(=O)Nc1ccc(OCCN(CC(C)C)c2ccc(C(F)(F)F)c(C#N)c2)c(Cl)c1`: the IC50 amounted to 310 nM.

Consider `O=C(Nc1ccc(Cl)c(C(F)(F)F)c1)c1ccc(Cl)c([N+](=O)[O-])c1`, for which the IC50 was 1120 nM. Against the preceding compound, the IC50 is about 3.6-fold higher.

Take `COC(=O)c1ccc2nc(-c3ccc(C(=O)NCc4ccc(Cl)c(Cl)c4)cc3)[nH]c2c1`: the IC50 was 850 nM. This IC50 and that of the compound before are within 1.5-fold of each other.

As to `C=C1C[C@@H](n2cnc3c(NC(=O)c4ccccc4)ncnc32)[C@@H](F)[C@@H]1OC(c1ccccc1)(c1ccccc1)c1ccccc1`, the IC50 was 140 nM.

In turn, `Cc1cc(NN=CC=Cc2ccccc2)c2ccc(F)cc2n1` yielded an IC50 of 590 nM. This IC50 is about 4.2-fold higher than that of the compound before.

With `c1cc(-c2ccc(CN3CCCC3)cc2)cc(-c2nc3ccccc3[nH]2)c1`, the IC50 turned out to be 690 nM.

Take `Cc1[nH]cnc1CSCCNC(N)=NCCCCCCCCN=C(N)NCCSCc1nc[nH]c1C`: the IC50 was determined as 270 nM.

Consider `CCc1cc(OC)c(C(=O)NC2CCN(C[C@H](O)c3ccnc4ccc(OC)cc34)CC2)cc1Br`, for which the IC50 was found to be 810 nM.

In turn, `Cc1ccccc1C1CCN(c2ccc(NC(=O)c3ccc(Cl)nc3)cc2)CC1` had an IC50 of 1030 nM.

As for `C=CCN1Cc2c(O)cccc2C(c2ccc(O)c(O)c2)C1` (stereo not drawn), the IC50 worked out at 670 nM.

As for `CC(Oc1c(C2CCN(CCCCNC(=O)c3ccc(-c4ccc(Cl)cc4)cc3)CC2)ccc2c1CCCC2)C(N)=O` (stereo not drawn), the IC50 amounted to 950 nM.

Take `CCC(CC)(Cc1ccccc1)NC(=O)[C@H](Cc1ccc(OC)c(OC)c1)Nc1ccc(C#N)c2ccccc12`: the IC50 was 870 nM.

`COc1cc(C)c(NC(=O)c2cccc3c(=O)c(C)c(-c4ccccc4)oc23)cc1OC`: the IC50 is 1630 nM.

Compound `CC(C)CNCc1cccc(-c2cccc(CNCCCN3CCN(C)CC3)c2)c1` yielded an IC50 of 1180 nM.

With `Cn1nc(C(F)(F)F)cc1-c1ccc(C(=O)Nc2ccc3c(c2)CNCC3(C)C)s1`, the IC50 was 1010 nM.

In turn, `NC(N)=Nc1ccc(CCc2ccc(N=C(N)N)cc2)cc1` came in with an IC50 of 290 nM. Against the preceding compound, the IC50 is about 3.5-fold lower.

The compound `Cc1ccc2c(C3=CCN(CCCCC4(C)C(=O)Nc5ccccc54)CC3)c(C)[nH]c2c1` (stereo not drawn) returned an IC50 of 370 nM.

Compound `CC(CN1CCN(C)CC1)C(=O)Nc1ccc(-c2ccc(-c3nc4ccccc4[nH]3)cc2)cc1` (stereo not drawn) registered an IC50 of 950 nM.

`CN(/N=C/C=C/c1ccc(Cl)cc1)c1nc(NCCc2ccc(O)cc2)nc(N2CCNCC2)n1`: the IC50 stood at 870 nM. The IC50 values of the last two compounds are within 1.5-fold of each other.

For `COc1c(Br)cc(Br)cc1C(C)=O`, the IC50 was 990 nM.

Take `CCc1cc(I)c2c(c1)C(NCCCNc1cc(=O)c3ccccc3[nH]1)CCN2` (stereo not drawn): the IC50 is 890 nM.

Regarding `Cc1[nH]c(C)c(-c2ccc(-c3cccc(Cl)c3)nc2)c(=O)c1Br`, the IC50 turned out to be 320 nM. Against the preceding compound, the IC50 is about 2.8-fold lower.

Compound `COC(=O)c1noc(C)c1I` showed an IC50 of 800 nM.

Regarding `COc1cc(CNCCCCCCNCc2cc(OC)cc3ccccc23)c2ccccc2c1`, the IC50 came to 590 nM. This IC50 and that of the compound before are within 1.5-fold of each other.

Compound `Cc1cccc(Cn2c(Cc3ccccc3)nnc2Sc2ccc([N+](=O)[O-])c(C#N)c2)c1` had an IC50 of 1140 nM.

`COc1ccc2c(NN=Cc3ccccc3Cl)ccnc2c1`: the IC50 is 620 nM.

With `Cn1cnc(CCNC(=O)c2ccc(-c3ccc(-c4nc5ccc(C(F)(F)F)cc5[nH]4)s3)cc2)c1`, the IC50 amounted to 400 nM. Compared with the last compound, the IC50 is about 1.6-fold lower.

Consider `O=C(Nc1ccc2c(c1)CCC2)c1ccc(N2CCN(c3ccncc3)CC2)cc1`, for which the IC50 was 1130 nM.

As for `CCCN(CCC)CCCCC(C)Nc1c2ccc(Cl)cc2nc2ccc(OC)cc12` (stereo not drawn), the IC50 was 140 nM.

For `CN(C)CCN(C)Cc1ccc(-c2cccc(-c3nc4ccccc4[nH]3)c2)cc1`, the IC50 was 750 nM. This IC50 lies about 5.4-fold higher than the previous one.

Turning to `CCCCOc1c(CCNCCCCNCCc2cc(F)c3ccccc3c2OCCCC)cc(F)c2ccccc12`, the IC50 is 630 nM. This IC50 and that of the compound before are within 1.5-fold of each other.

With `C[C@@H](Oc1cc(-n2cnc3ccc(NC(=O)NC(C)(C)C)cc32)sc1C(N)=O)c1ccccc1Cl`, the IC50 amounted to 330 nM.

Consider `COc1ccc(CCN(C)CCOc2ccc(NC(=O)c3cccc4cc5ccccc5nc34)cc2)cc1OC`, for which the IC50 turned out to be 680 nM.

The compound `Cc1occc1C(=O)Nc1nc(-c2ccccn2)nc2ccsc12` returned an IC50 of 900 nM. This IC50 and that of the compound before are within 1.5-fold of each other.

The compound `CO/C(=C\C=C\c1cc2cc(Cl)c(Cl)cc2[nH]1)C(=O)NCCCN1CCN(c2cccc(CCCO)c2)CC1` returned an IC50 of 1030 nM. The IC50 values of the last two compounds are within 1.5-fold of each other.

Consider `O=C(Cc1cccc(Cl)c1)Nc1ccc(N2CCC(NCc3ccc4ncccc4c3)CC2)cc1`, for which the IC50 came to 1230 nM. This IC50 and that of the compound before are within 1.5-fold of each other.

Turning to `O=C(Nc1ccc(C(=O)Oc2ccc3ccccc3c2)cc1)N[C@@H](Cc1ccc(O)cc1)C(=O)NC1CCN(Cc2ccc(O)cc2)C1` (stereo partly drawn), the IC50 came to 1060 nM.

`COc1cccc(-c2csc(C(=O)NCC3CCN(Cc4ccc(C(C)(C)C)cc4)C3)c2)c1` (stereo not drawn) gave an IC50 of 1180 nM.

`N#Cc1ccc(C(=O)Nc2cc(-c3cccc(O)c3)cc3[nH]ncc23)cc1` showed an IC50 of 1370 nM.

`Cc1ccc(O)cc1Nc1ccnc2cc(-c3csc(CN4CCN(C)CC4)n3)ccc12`: the half-maximal inhibitory concentration (IC50) came to 600 nM.

`N#Cc1ccc(N2CCN(Cc3ccc(-c4ccc(-c5nc6ccc(F)cc6[nH]5)s4)cc3)CC2)nc1` showed an IC50 of 850 nM.

As for `COc1cc2cc(-c3nc4ccccc4[nH]3)c(N)nc2cc1OC`, the IC50 is 170 nM.

`O=C(O)C1Cc2c([nH]c3ccccc23)C(c2ccc(Cl)cc2Cl)N1` (stereo not drawn) yielded an IC50 of 950 nM.

In turn, `CC(=NNC(=S)NCCc1ccccc1)c1ccccn1` had an IC50 of 220 nM.

The compound `Cc1ccccc1C1CCN(c2ccc(C(=O)NC3CC3)cn2)CC1` showed an IC50 of 850 nM. This IC50 lies about 3.9-fold higher than the previous one.

In the case of `COc1cc(C(=O)NC2CC(C)(C)N(C)C(C)(C)C2)ccc1-c1nc2cc(Cl)c(Cl)cc2[nH]1`, the IC50 came to 790 nM.

`CN1CCN(CC2(Nc3nccc(NCCc4cn(C)c5ccccc45)n3)CCCCC2)CC1` returned an IC50 of 1810 nM.

`CC(Cc1ccc(SC(C)C)cc1)NCC(O)c1cccc(Cl)c1` (stereo not drawn) returned a half-maximal inhibitory concentration (IC50) of 830 nM.

The values are drawn from PubChem BioAssay AID2305 (GlaxoSmithKline (GSK), 2010).
